ChEMBL document CHEMBL2169801, “Development of o-chlorophenyl substituted pyrimidines as exceptionally potent aurora kinase inhibitors” (J Med Chem, 2012)
Values after ≈ are worked out from the molar mass of the structure shown.

Columns and labels:
physchem = details: buffer, pH 7.4
[1] = buffer

| solubility (physchem) [µg/mL] | solubility [1] | Compound |
| --- | --- | --- |
| 49 (≈ 128 µM) |  | Fc1cnc(Nc2ccc(-c3nnn[nH]3)cc2)nc1Nc1ccccc1Cl |
| 49 (≈ 134 µM) |  | Clc1ccccc1Nc1ccnc(Nc2ccc(-c3nnn[nH]3)cc2)n1 |
| 49 (≈ 123 µM) |  | Oc1cc(Nc2ncc(F)c(Nc3ccccc3Cl)n2)ccc1-c1nnn[nH]1 |
| 49 (≈ 123 µM) |  | Clc1ccccc1Nc1nc(Nc2ccc(-c3nnn[nH]3)cc2)ncc1Cl |

Second part, the compound before the results:

| Compound | solubility (physchem) [µg/mL] | solubility [1] |
| --- | --- | --- |
| O=C(O)c1ccc(Nc2nccc(Nc3ccccc3F)n2)cc1 |  | Insoluble |
| O=C(O)c1ccc(Nc2nccc(Nc3ccccc3Cl)n2)cc1O |  | Insoluble |
| O=C(O)c1ccc(Nc2nccc(Nc3ccccc3Cl)n2)cc1 |  | Insoluble |
| O=C(O)c1ccc(Nc2ncc(F)c(Nc3ccccc3C(=O)O)n2)cc1 |  | Insoluble |
